Like-named read-outs stand apart in the source and are kept apart here.
What was measured:
[1] = target: CYP2C19 (Homo sapiens (Human), UniProt P33261); assay: Inhibition of human liver microsomal cytochrome P450 isoenzyme CYP2C19; assay type: in vitro ADME; conditions: human liver microsomes
Experimental: (§1) To determine the inhibitory effect of the test compound WX001 on the activity of human liver microsomal cytochrome P450 isoenzymes (CYP1A2, CYP2C9, CYP2C19, CYP2D6, and CYP3A4). First, the test compound (10.0 mM) was diluted to prepare a working solution (100×the final concentration) with a concentration of 1.00 mM. Simultaneously, working solutions were respectively prepared for positive inhibitors of the P450 isoenzymes (CYP1A2, CYP2C9, CYP2C19, CYP2D6, CYP3A4 (with midazolam as a probe substrate), and CYP3A4 (with testosterone as a probe substrate)) and specific probe substrates thereof. Human liver microsomes, stored in a refrigerator at a temperature lower than −60° C., were thawed on ice, and once fully dissolved, were diluted with PB to prepare a working solution of a specific concentration (0.127 mg/mL). 20.0 μL of probe substrate was added to the reaction plate (20.0 μL of PB was added to the Blank wells), followed by the addition of 158 μL of human liver microsomal working solution to the reaction plate. The reaction plate was then placed on ice for later use. Then, 2.00 μL of the test compound (N=1) and specific inhibitors (N=2) were added to the corresponding wells. […] Lastly, the plate was sealed, shaken to ensure the content was thoroughly mixed, and analyzed by LC/MS/MS.

[2] = target: CYP3A4 (Homo sapiens (Human), UniProt P08684); assay: Inhibition of human liver microsomal cytochrome P450 isoenzyme CYP3A4; assay type: in vitro ADME; conditions: human liver microsomes
Chain of CYP3A4 (P08684 whole entry): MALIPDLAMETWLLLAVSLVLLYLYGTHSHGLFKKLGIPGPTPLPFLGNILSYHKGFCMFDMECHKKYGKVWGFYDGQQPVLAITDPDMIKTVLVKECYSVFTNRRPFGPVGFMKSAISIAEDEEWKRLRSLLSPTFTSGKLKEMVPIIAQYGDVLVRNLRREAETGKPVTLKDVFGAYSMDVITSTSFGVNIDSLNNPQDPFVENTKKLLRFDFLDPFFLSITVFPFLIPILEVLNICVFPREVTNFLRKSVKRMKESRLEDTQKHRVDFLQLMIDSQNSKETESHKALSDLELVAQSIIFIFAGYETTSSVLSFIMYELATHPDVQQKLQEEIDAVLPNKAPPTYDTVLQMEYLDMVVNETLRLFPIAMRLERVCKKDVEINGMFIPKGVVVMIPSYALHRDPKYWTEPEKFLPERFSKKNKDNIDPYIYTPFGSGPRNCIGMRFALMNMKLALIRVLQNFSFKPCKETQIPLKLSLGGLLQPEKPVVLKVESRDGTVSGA
Experimental: as §1

[3] = target: THRα (Homo sapiens (Human), UniProt P10827); assay: GeneBLAzer TR alpha-UAS-bla HEK 293T cell-based agonist assay; conditions: TR alpha-UAS-bla HEK 293T cells; for EC50: 22 hours incubation; for THRα maximum agnostic capability: T3 as positive control
Chain of THRα (P10827 other isoform, or with tags, fused parts or gaps isoform P10827-2): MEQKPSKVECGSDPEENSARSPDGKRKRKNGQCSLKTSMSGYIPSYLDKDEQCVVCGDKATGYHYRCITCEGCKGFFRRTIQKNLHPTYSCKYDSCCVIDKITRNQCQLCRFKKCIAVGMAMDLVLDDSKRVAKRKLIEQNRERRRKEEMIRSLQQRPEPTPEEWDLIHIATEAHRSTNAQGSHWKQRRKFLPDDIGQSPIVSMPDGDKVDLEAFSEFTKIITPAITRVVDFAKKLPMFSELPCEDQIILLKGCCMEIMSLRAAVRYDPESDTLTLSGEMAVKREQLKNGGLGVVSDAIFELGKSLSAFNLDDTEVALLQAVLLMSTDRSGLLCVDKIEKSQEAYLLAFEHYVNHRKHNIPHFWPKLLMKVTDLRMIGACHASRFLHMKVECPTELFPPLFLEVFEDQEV
Experimental: When a compound enters the cell and binds to THR, the receptor binds to the DNA binding region to form a complete GAL4 dimer that utilizes the GAL4-UAS system to activate β-lactamase expression, which then decomposes the substrate CCF4-AM (coumarin).
The LiveBLAzer™M-FRET B/G (CCF4-AM) substrate was added to the cell plate and incubated for 2 hours at room temperature, shielded from light. […] By detecting the ratio of the two fluorescences (460 nm/530 nm), the EC50 of the compound was calculated using Graphpad Prism software. […] The Z-factor (greater than 0.5) is calculated to monitor the stability of each experiment.

[4] = target: THRβ (Homo sapiens, UniProt P10828); assay: GeneBLAzer TR beta-UAS-bla HEK 293T cell-based agonist assay; conditions: for THRß maximum agnostic capability: TR beta-UAS-bla HEK 293T cells, T3 as positive control
Chain of THRβ (P10828 whole entry, looked up, the tested form may be a part): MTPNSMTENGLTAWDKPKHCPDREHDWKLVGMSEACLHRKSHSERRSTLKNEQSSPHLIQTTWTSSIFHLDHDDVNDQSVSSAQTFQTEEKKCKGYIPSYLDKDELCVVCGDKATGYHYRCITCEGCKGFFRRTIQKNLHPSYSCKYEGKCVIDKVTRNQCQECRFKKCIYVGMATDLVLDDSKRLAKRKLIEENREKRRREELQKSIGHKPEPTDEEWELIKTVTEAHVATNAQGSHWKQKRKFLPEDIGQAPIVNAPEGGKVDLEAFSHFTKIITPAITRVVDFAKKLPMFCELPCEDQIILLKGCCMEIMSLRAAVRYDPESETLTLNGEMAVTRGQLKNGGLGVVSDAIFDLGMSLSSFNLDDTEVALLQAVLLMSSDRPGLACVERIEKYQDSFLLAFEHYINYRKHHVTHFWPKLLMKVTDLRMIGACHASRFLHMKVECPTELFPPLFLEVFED
Description: The present experiment employs the GeneBLAzer® TR alpha/beta-UAS-bla HEK 293T Cell-based Assay developed by ThermoFisher. The underlying principle is that TR alpha-UAS-bla HEK 293T Cell and TR beta-UAS-bla HEK 293T Cell express B-lactamase, a reporter gene controlled by the upstream UAS sequence. When a compound enters the cell and binds to THR, the receptor binds to the DNA binding region to form a complete GAL4 dimer that utilizes the GAL4-UAS system to activate β-lactamase expression, which then decomposes the substrate CCF4-AM (coumarin). The resulting product, when excited at 409 nm, emits fluorescence at a wavelength of 447 nm. If β-lactamase is not expressed, the product generates fluorescence at a wavelength of 520 nm through FRET under excitation at 409 nm. By detecting the ratio of the two fluorescences (447 nm/520 nm), the binding status of the compound to the protein can be determined, thus allowing the calculation of the EC50 of the compound.
The ECHO liquid handling workstation was used to transfer the compound to a 384-well plate, with 10 gradient concentrations for each compound, 3-fold dilution, and duplicate wells. 1.5×10^4 cells (TR beta-UAS-bla HEK 293T Cell) or 1.0×10^4 cells (TR alpha-UAS-bla HEK 293T Cell) were seeded onto the 384-well plate. HEK 293T-TR beta cells were incubated for 16 hours in a 37° C. incubator, and HEK 293T-TR alpha cells were incubated for 22 hours. The LiveBLAzer™M-FRET B/G (CCF4-AM) substrate was added to the cell plate and incubated for 2 hours at room temperature, shielded from light. The Flexstation 3 instrument was utilized to detect the fluorescence values with the wavelength of 460 nm/530 nm emitted by the product under the excitation at 409 nm. By detecting the ratio of the two fluorescences (460 nm/530 nm), the EC50 of the compound was calculated using Graphpad Prism software. […] The Z-factor (greater than 0.5) is calculated to monitor the stability of each experiment.

[5] = Pharmacokinetic study of oral and intravenous administration in rats; assay type: in vivo, rat; conditions: male SD rats; for half-life: read-out: Half-life T1/2 (converted)
Experimental: Pharmacokinetic study of oral and intravenous administration of WX001 in rats
Male SD rats were selected, and given the test compound as detailed in Table 3.
Whole blood was collected for a certain period of time and prepared into plasma. The drug concentration was analyzed by the LC-MS/MS method, and the pharmacokinetic parameters were calculated using Phoenix WinNonlin software (Pharsight, USA).

[6] = target: CYP2D6 (Homo sapiens (Human), UniProt P10635); assay: Inhibition of human liver microsomal cytochrome P450 isoenzyme CYP2D6; assay type: in vitro ADME; conditions: human liver microsomes
Chain of CYP2D6 (P10635 whole entry): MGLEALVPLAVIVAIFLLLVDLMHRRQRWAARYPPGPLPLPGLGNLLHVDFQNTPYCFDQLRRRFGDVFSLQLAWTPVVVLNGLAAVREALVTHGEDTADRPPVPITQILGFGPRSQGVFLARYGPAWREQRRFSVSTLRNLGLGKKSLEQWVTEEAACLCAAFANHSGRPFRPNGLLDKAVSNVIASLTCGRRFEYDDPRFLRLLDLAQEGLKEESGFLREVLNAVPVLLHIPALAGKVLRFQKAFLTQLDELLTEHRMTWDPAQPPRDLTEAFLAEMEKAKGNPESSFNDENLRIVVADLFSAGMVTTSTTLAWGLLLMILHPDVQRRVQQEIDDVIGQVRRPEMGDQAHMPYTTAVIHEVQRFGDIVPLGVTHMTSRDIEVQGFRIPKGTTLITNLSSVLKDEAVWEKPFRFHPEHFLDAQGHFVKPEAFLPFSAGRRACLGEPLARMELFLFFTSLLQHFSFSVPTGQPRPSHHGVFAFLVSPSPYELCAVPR
Experimental: as §1

[7] = target: CYP2C9 (Homo sapiens (Human), UniProt P11712); assay: Inhibition of human liver microsomal cytochrome P450 isoenzyme CYP2C9; assay type: in vitro ADME; conditions: human liver microsomes
Chain of CYP2C9 (P11712 whole entry): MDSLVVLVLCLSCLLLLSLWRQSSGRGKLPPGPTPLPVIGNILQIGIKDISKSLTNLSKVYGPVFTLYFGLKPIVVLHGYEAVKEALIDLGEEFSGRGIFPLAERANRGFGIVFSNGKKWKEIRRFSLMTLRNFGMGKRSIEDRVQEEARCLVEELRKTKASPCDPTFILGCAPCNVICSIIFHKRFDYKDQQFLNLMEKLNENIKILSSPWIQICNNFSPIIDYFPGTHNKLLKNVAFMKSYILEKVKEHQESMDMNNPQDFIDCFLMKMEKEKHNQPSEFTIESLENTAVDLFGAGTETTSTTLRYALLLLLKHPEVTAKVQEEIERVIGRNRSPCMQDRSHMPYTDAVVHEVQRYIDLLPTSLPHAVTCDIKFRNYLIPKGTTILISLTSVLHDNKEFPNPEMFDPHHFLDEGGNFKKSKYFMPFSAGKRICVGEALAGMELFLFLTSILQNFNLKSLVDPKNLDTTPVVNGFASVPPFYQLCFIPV
Experimental: as §1

[8] = target: CYP1A2 (Homo sapiens (Human), UniProt P05177); assay type: in vitro ADME; conditions: microsomes
Chain of CYP1A2 (P05177 whole entry): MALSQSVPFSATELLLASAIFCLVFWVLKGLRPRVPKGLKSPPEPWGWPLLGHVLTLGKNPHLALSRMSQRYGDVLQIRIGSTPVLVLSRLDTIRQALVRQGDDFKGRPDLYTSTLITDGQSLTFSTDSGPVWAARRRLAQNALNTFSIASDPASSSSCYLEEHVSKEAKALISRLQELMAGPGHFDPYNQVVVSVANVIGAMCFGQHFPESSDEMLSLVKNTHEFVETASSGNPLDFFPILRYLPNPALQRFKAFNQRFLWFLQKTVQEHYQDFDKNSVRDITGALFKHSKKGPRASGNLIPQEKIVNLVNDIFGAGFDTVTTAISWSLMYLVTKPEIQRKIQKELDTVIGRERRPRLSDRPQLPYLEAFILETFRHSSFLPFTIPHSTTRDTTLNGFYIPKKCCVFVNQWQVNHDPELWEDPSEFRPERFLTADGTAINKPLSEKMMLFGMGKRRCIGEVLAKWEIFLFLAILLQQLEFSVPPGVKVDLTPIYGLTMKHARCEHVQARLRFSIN
Experimental: as §1

[9] = rat, plasma, 30 mg/kg, oral, 30 mpk

Chain of CYP2C19 (P33261 whole entry): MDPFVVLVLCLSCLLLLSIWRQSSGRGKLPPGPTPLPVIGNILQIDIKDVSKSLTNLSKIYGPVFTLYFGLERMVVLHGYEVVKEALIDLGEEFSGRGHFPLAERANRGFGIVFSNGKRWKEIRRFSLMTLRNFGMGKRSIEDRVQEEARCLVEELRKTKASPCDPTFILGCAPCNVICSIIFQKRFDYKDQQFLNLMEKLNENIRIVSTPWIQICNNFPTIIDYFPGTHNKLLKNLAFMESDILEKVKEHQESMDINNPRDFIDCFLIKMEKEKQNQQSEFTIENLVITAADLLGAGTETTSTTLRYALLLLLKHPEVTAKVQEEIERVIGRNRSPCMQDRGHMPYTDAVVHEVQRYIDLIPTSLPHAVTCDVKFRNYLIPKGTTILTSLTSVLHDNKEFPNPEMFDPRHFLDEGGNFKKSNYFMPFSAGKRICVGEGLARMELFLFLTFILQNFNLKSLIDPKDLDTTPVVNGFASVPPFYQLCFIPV

Compound	IC50 [1]	inhibitory effect on CYP2C19 (in words) [1]	inhibitory effect on CYP3A4 (in words) [2]	IC50 ([2]; midazolam as probe substrate)	EC50 [3]	THRα maximum agnostic capability [3]	EC50 [4]	THRß maximum agnostic capability [4]	Area under the plasma concentration-time curve/Dosage DNAUC0-last ([5]; intravenous, 3 mpk)	Area under the plasma concentration-time curve/Dosage DNAUC0-last ([5]; oral, 30 mpk)	Vd ([5]; rat, plasma, 3 mg/kg, intravenous, 3 mpk, read-out: Apparent volume of distribution Vdss)	clearance ([5]; rat, plasma, 3 mg/kg, intravenous, 3 mpk, read-out: Clearance CL)	half-life ([5]; rat, plasma, 3 mg/kg, intravenous, 3 mpk)	bioavailability [5, 9]	half-life [5, 9]	IC50 [6]	inhibitory effect on CYP2D6 (in words) [6]	IC50 [7]	inhibition against CYP2C9 (in words) [7]	inhibitory effect on CYP1A2 (in words) [8]
Cc1cc(NC(=O)c2noc(=O)[nH]2)cc(C)c1Cc1ccc(O)c2c1CCCC2 [WX001]	5090 nM	no inhibitory effects	no inhibitory effects	25400 nM	122 nM	24%	39.4 nM	103%	5343 nM. h/mpk	1939 nM. h/mpk	0.411 L/kg	7.93 mL/min/kg	1.66 h	36%	1.6 h	41600 nM	no inhibitory effects	3270 nM	moderate inhibition	no inhibitory effects
Cc1cc(NC(=O)c2noc(=O)[nH]2)cc(C)c1Cc1ccc(O)c(Cc2ccccc2)c1 [WX002]	–	–	–	–	1000 nM	101%	85.5 nM	99%	–	–	–	–	–	–	–	–	–	–	–	–
Cc1cc(NC(=O)c2noc(=O)[nH]2)cc(C)c1Cc1cc(I)c(O)c2c1CCCC2 [WX005]	–	–	–	–	155 nM	85%	57.8 nM	96%	–	–	–	–	–	–	–	–	–	–	–	–
Cc1cc(NC(=O)c2noc(=O)[nH]2)cc(C)c1Cc1cc(F)c(O)c2c1CCCC2 [WX006]	–	–	–	–	435 nM	86%	105 nM	90%	–	–	–	–	–	–	–	–	–	–	–	–

From patent US20240239761A1, “BICYCLIC PHENOL COMPOUNDS AND USE THEREOF” (MEDSHINE DISCOVERY INC., priority 2021, published 2024)
